# Test results: patent US20100323894A1, “HERBICIDAL COMBINATION” (Bayer CropScience AG, priority 2007, published 2010)
# How the values were obtained:
# Polygonum convolvulus = experiment: Post-emergence action against weeds, greenhouse, visual scoring; format: in vivo; conditions: scoring 11 days after application
# Procedure: (§1) Seeds or rhizome pieces of monocotyledonous and dicotyledonous weeds were placed in sandy loam soil in plastic pots, covered with soil and cultivated in a greenhouse under good growth conditions. Three weeks after sowing, the test plants were treated at the 2- to 4-leaf stage. The compounds according to the invention, formulated as wettable powders or as emulsion concentrates, were sprayed onto the green parts of the plants in various dosages at a water application rate of 100 to 800 l/ha (converted). After the test plants had been left to stand in the greenhouse for 10 to 28 days under optimum growth conditions, the effect of the preparations was scored visually in comparison to untreated controls.
# 0%=no control 100%=complete control
# Galium aparine = experiment: as above; format: in vivo; conditions: scoring 11 days after application, 0=no control, 100=complete control
# Procedure: as §1
# 0=no control 100=complete control
molecule,measurement,setting,value
"CS(=O)(=O)c1cc(C(F)(F)F)ccc1C(=O)c1cnoc1C1CC1 [Compound B3-3, isoxaflutole]",Polygonum convolvulus Control in %,"Polygonum convolvulus; 50 g of ai/ha, 0=no control, 100=complete control",25%
"CCc1cc(C)cc(CC)c1-c1c(OC(=O)C(C)(C)C)n2n(c1=O)CCOCC2 [Compound B9-1, pinoxaden]",Polygonum convolvulus Control in %,"Polygonum convolvulus; 15 g of ai/ha, 0=no control, 100=complete control",20%
"COCc1cnc(C2=NC(C)(C(C)C)C(=O)N2)c(C(=O)O)c1 (centres unmarked) [Compound B4-2, imazamox]",Galium aparine Control in %,Galium aparine; 10 g of ai/ha,75%
"CCN(C(=O)n1nnn(-c2ccccc2Cl)c1=O)C1CCCCC1 [Compound B8-1, fentrazamide]",Polygonum convolvulus Control in %,"Polygonum convolvulus; 250 g of ai/ha, 0%=no control, 100%=complete control",20%
"sodium salt of 2-iodo-N-[(4-methoxy-6-methyl-1,3,5-triazin-2-yl)carbamoyl]benzenesulfonamide [Compound A-2]",Polygonum convolvulus Control in %,"Polygonum convolvulus; 2.5 g of ai/ha, 0%=no control, 100%=complete control",10%
same,Galium aparine Control in %,Galium aparine; 2.5 g of ai/ha,0%
"Cc1nn(C)c(O)c1C(=O)c1ccc(C(F)(F)F)cc1S(C)(=O)=O [Compound B1-6, pyrasulfotole]",Polygonum convolvulus Control in %,"Polygonum convolvulus; 25 g of ai/ha, 0%=no control, 100%=complete control",20%
"CCOC(=O)COc1cc(-c2nn(C)c(OC(F)F)c2Cl)c(F)cc1Cl [Compound B2-1, pyraflufen-ethyl]",Galium aparine Control in %,Galium aparine; 2 g of ai/ha,23%
